Reference: publication PMC2950902 (Molecular Microbiology, 2010)

Key:
P1 ParA [1] = biological target: T1, P1 ParA (Escherichia coli, UniProt P07620); assay: MANT-nucleotide fluorescence; assay type: binding; details: unlabelled ADP
T1 sequence (P07620 1-398): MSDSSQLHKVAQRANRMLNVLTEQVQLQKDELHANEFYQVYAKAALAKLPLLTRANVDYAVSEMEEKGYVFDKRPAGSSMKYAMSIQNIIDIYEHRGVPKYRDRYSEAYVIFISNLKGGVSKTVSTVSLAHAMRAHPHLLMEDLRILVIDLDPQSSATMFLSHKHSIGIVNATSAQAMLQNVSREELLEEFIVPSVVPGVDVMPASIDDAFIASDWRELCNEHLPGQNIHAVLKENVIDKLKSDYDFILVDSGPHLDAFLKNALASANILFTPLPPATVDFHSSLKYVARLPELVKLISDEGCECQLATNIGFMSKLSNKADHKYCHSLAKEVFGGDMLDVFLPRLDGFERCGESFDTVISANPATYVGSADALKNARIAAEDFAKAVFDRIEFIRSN

P1 ParA [2] = biological target: T1, P1 ParA; assay: tryptophan fluorescence change; assay type: binding; details: 1 mM nucleotide, Mg2+, 23°C

Row | SMILES | apparent Kd (P1 ParA [1]) | tryptophan fluorescence change (P1 ParA [2])
1 | Nc1ncnc2c1ncn2[C@@H]1O[C@H](COP(=O)(O)OP(=O)(O)O)[C@@H](O)[C@H]1O [ADP] | MANT-ADP bound ParA with similar affinity as ADP | –
2 | Nc1ncnc2c1ncn2[C@@H]1O[C@H](COP(=O)(O)OP(=O)(O)OP(O)(O)=S)[C@@H](O)[C@H]1O [ATPγS] | – | ADP and ATPγS induced a small but reproducible increase in fluorescence
